Reference: patent publication US4424351A, “Pyrido[3,4-e]-as-triazines” (Egyt Gyogyszervegyeszeti Gyar, priority 1979, dated 1984)

Tested on: mice
Assay: analgesic effect, writhing test (acetic acid i.p.)
Format: in vivo
Conditions: LD50/ED50, writhing test, mice p.o.
Description: The analgesic effect of the new compounds according to the invention was investigated on mice by the so-called writhing test. […] The animals were treated orally with the compound to be tested one hour before the introduction of acetic acid. The animals belonging to the control group received vehicle only.

Row | Compound | Therapeutical index (LD50/ED50), analgesic effect
1 | CC(=O)N1N=C(c2ccccc2)Nc2cnccc21 [Example 17, 3-phenyl-1-acetyl-1,4-dihydropyrido[3,4-e]-as-triazine] | 60.87
2 | CCC(=O)N1N=C(c2ccccc2)Nc2cnccc21 [Example 12, 3-phenyl-1-propionyl-1,4-dihydropyrido[3,4-e]-as-triazine] | above 40
3 | CCCC(=O)N1N=C(c2ccccc2)Nc2cnccc21 [Example 19, 3-phenyl-1-butyryl-1,4-dihydropyrido[3,4-e]-as-triazine] | 20
4 | CCC(=O)N1C=NN(C(=O)CC)c2ccncc21 [Example 18, 1,4-dipropioyl-1,4-dihydropyrido[3,4-e]-as-triazine] | 75

Same assay, conditions: Mus musculus; mice, oral 1 h before 0.4 ml of 0.5% acetic acid i.p.; dosage decreasing number of writhings by 50%; read-out: ED50 p.o. (analgesic effect)

Row | Compound | ED50 [mg/kg]
5 | CC(=O)N1N=C(c2ccccc2)Nc2cnccc21 [Example 17, 3-phenyl-1-acetyl-1,4-dihydropyrido[3,4-e]-as-triazine] | 23
6 | CCCCC1C(=O)N(c2ccccc2)N(c2ccccc2)C1=O [Phenylbutazone, reference compound] | 65
7 | CCC(=O)N1N=C(c2ccccc2)Nc2cnccc21 [Example 12, 3-phenyl-1-propionyl-1,4-dihydropyrido[3,4-e]-as-triazine] | 50
8 | CCCC(=O)N1N=C(c2ccccc2)Nc2cnccc21 [Example 19, 3-phenyl-1-butyryl-1,4-dihydropyrido[3,4-e]-as-triazine] | 75
9 | CCC(=O)N1C=NN(C(=O)CC)c2ccncc21 [Example 18, 1,4-dipropioyl-1,4-dihydropyrido[3,4-e]-as-triazine] | 6

Tested on: animals treated with tetrabenazine
Assay: tetrabenazine-antagonizing effect (closed palpebral fissures)
Format: in vivo
Conditions: LD50/ED50, p.o.
Description: The tetrabenzine-antagonizing effect of the new compounds was tested on groups consisting of 10 mice each. The animals belonging to the control group received an oral dosage of 20 ml/kg of 0.9% aqueous sodium chloride solution, whereas the other animals were treated orally with the compound to be tested. 30 minutes after the introduction of the active agent or the vehicle 50 mg/kg of tetrabenazine (3-isobutyl-9,10-[…]-1,2,3,4,6,7-hexahydrobenzo[a]quinolisine-2-one) were administered orally into the animals, and the animals with closed palpebral fissures were counted 30, 60, 90 and 120 minutes after the administration of tetrabenazine. The data obtained in the individual measuring times were added, and the percentage inhibition related to the controls was calculated.

Row | Compound | Therapeutical index (LD50/ED50), tetrabenazine-antagonizing effect
10 | CC(=O)N1N=C(c2ccccc2)Nc2cnccc21 [Example 17, 3-phenyl-1-acetyl-1,4-dihydropyrido[3,4-e]-as-triazine] | 25
11 | CCCC(=O)N1N=C(c2ccccc2)Nc2cnccc21 [Example 19, 3-phenyl-1-butyryl-1,4-dihydropyrido[3,4-e]-as-triazine] | 75
12 | CCC(=O)N1N=C(c2ccccc2)Nc2cnccc21.Cl [12 (HCl), 3-phenyl-1-propionyl-1,4-dihydro-pyrido[3,4-e]-as-triazine hydrochloride] | 50

Same assay, conditions: Mus musculus; oral, 30 min before 50 mg/kg tetrabenazine p.o.; readings at 30, 60, 90 and 120 min summed

Row | Compound | ED50 [mg/kg]
13 | CC(=O)N1N=C(c2ccccc2)Nc2cnccc21 [Example 17, 3-phenyl-1-acetyl-1,4-dihydropyrido[3,4-e]-as-triazine] | 56
14 | CN(C)CCC=C1c2ccccc2CCc2ccccc21 [Amitryptiline, reference compound] | 12
15 | CCCC(=O)N1N=C(c2ccccc2)Nc2cnccc21 [Example 19, 3-phenyl-1-butyryl-1,4-dihydropyrido[3,4-e]-as-triazine] | 20
16 | CCC(=O)N1N=C(c2ccccc2)Nc2cnccc21.Cl [12 (HCl), 3-phenyl-1-propionyl-1,4-dihydro-pyrido[3,4-e]-as-triazine hydrochloride] | 40

Tested on: white mice
Assay: motility inhibiting effect (orientation reflex, eight-channel Dews apparatus)
Format: in vivo
Conditions: LD50/ED50, Dews apparatus, mice p.o.
Description: The effect of the new compounds exerted on the orientation reflex was tested on white mice in an eight-channel Dews apparatus, according to the method of Borsy et al. (Arch. Int. Pharmacodyn. 124, 1-2 /1960/). The number of light beam interceptions, caused by the movement of the animals, was recorded after a pre-treatment of 30 minutes. The test groups consisted of 3 mice. The ED50 values obtained in the investigation of motility-inhibiting effect, furthermore the therapeutical indices (LD50 /ED50) calculated therefrom are listed in Table 4.

Row | Compound | Therapeutical index (LD50/ED50), motility inhibiting effect
17 | CC(=O)N1N=C(c2ccccc2)Nc2cnccc21 [Example 17, 3-phenyl-1-acetyl-1,4-dihydropyrido[3,4-e]-as-triazine] | 46.67
18 | CCCC(C)(COC(N)=O)COC(N)=O [Meprobamate, reference compound] | 14.1
19 | CCC(=O)N1N=C(c2ccccc2)Nc2cnccc21 [Example 12, 3-phenyl-1-propionyl-1,4-dihydropyrido[3,4-e]-as-triazine] | >57.4
20 | CCCC(=O)N1N=C(c2ccccc2)Nc2cnccc21 [Example 19, 3-phenyl-1-butyryl-1,4-dihydropyrido[3,4-e]-as-triazine] | 16.67
21 | CCC(=O)N1N=C(c2ccccc2)Nc2cnccc21.Cl [12 (HCl), 3-phenyl-1-propionyl-1,4-dihydro-pyrido[3,4-e]-as-triazine hydrochloride] | 40

Same assay, conditions: Mus musculus, 0.5 h; white mice, oral, pre-treatment of 30 minutes; light beam interceptions; read-out: ED50 p.o. (motility inhibiting effect)

Row | Compound | ED50 [mg/kg]
22 | CC(=O)N1N=C(c2ccccc2)Nc2cnccc21 [Example 17, 3-phenyl-1-acetyl-1,4-dihydropyrido[3,4-e]-as-triazine] | 30
23 | CCCC(C)(COC(N)=O)COC(N)=O [Meprobamate, reference compound] | 270
24 | CCC(=O)N1N=C(c2ccccc2)Nc2cnccc21 [Example 12, 3-phenyl-1-propionyl-1,4-dihydropyrido[3,4-e]-as-triazine] | 35
25 | CCCC(=O)N1N=C(c2ccccc2)Nc2cnccc21 [Example 19, 3-phenyl-1-butyryl-1,4-dihydropyrido[3,4-e]-as-triazine] | 90
26 | CCC(=O)N1N=C(c2ccccc2)Nc2cnccc21.Cl [12 (HCl), 3-phenyl-1-propionyl-1,4-dihydro-pyrido[3,4-e]-as-triazine hydrochloride] | 50

Tested on: mice
Assay: potentiation of hexobarbital-induced narcosis (method of Kaergaard et al.)
Format: in vivo
Conditions: LD50/ED50, mice p.o.
Description: The hexobarbital-induced narcosis potentiating effect of the new compounds was tested by the method of Kaergaard et al. (Arch. Int. Pharmacodyn. 2, 170 /1967/) on groups consisting of 6 mice each. The animals belonging to the control group received an oral dosage of 20 ml/kg of 0.9% aqueous sodium chloride solution, whereas the other animals were treated orally with the compound to be tested. Thereafter 40 mg/kg of hexobarbital (5-/1-cyclohexenyl/-[…]) were administered intravenously into the animals. A 150% prolongation of the sleeping time, related to the average value observed in the controls, was regarded as positive response. The number of animals giving positive response was compared to the total number of the animals treated.

Row | Compound | Therapeutical index (LD50/ED50), potentiation of hexobarbital-induced narcosis
27 | CC(=O)N1N=C(c2ccccc2)Nc2cnccc21 [Example 17, 3-phenyl-1-acetyl-1,4-dihydropyrido[3,4-e]-as-triazine] | 40
28 | CCCC(C)(COC(N)=O)COC(N)=O [Meprobamate, reference compound] | 4.1
29 | CCC(=O)N1N=C(C)Nc2cnccc21 [Example 11, 3-Methyl-1-propionyl-1,4-dihydropyrido[3,4-e]-as-triazine] | 25
30 | CC(=O)N1C=NN(C(C)=O)c2ccncc21 [Example 1, 1,4-diacetyl-1,4-dihydropyrido[3,4-e]-as-triazine] | 11.4
31 | CCC(=O)N1N=C(c2ccccc2)Nc2cnccc21 [Example 12, 3-phenyl-1-propionyl-1,4-dihydropyrido[3,4-e]-as-triazine] | 32.3
32 | CCCC(=O)N1N=C(c2ccccc2)Nc2cnccc21 [Example 19, 3-phenyl-1-butyryl-1,4-dihydropyrido[3,4-e]-as-triazine] | 10
33 | CCC(=O)N1N=C(c2ccccc2)Nc2cnccc21.Cl [12 (HCl), 3-phenyl-1-propionyl-1,4-dihydro-pyrido[3,4-e]-as-triazine hydrochloride] | 200

Same assay, conditions: Mus musculus; mice, oral, then 40 mg/kg hexobarbital i.v.; 150% prolongation of sleeping time = positive; read-out: ED50 p.o. (potentiation of hexobarbital-induced narcosis)

Row | Compound | ED50 [mg/kg]
34 | CC(=O)N1N=C(c2ccccc2)Nc2cnccc21 [Example 17, 3-phenyl-1-acetyl-1,4-dihydropyrido[3,4-e]-as-triazine] | 35
35 | CCCC(C)(COC(N)=O)COC(N)=O [Meprobamate, reference compound] | 270
36 | CCC(=O)N1N=C(C)Nc2cnccc21 [Example 11, 3-Methyl-1-propionyl-1,4-dihydropyrido[3,4-e]-as-triazine] | 20
37 | CC(=O)N1C=NN(C(C)=O)c2ccncc21 [Example 1, 1,4-diacetyl-1,4-dihydropyrido[3,4-e]-as-triazine] | 25
38 | CCC(=O)N1N=C(c2ccccc2)Nc2cnccc21 [Example 12, 3-phenyl-1-propionyl-1,4-dihydropyrido[3,4-e]-as-triazine] | 62
39 | CCCC(=O)N1N=C(c2ccccc2)Nc2cnccc21 [Example 19, 3-phenyl-1-butyryl-1,4-dihydropyrido[3,4-e]-as-triazine] | 150
40 | CCC(=O)N1N=C(c2ccccc2)Nc2cnccc21.Cl [12 (HCl), 3-phenyl-1-propionyl-1,4-dihydro-pyrido[3,4-e]-as-triazine hydrochloride] | 10

Tested on: not listed separately
Assay: in vivo
Conditions: mouse, mice, oral
Description: The acute toxicity of the new compounds having the general formula (I) was tested on mice. The substances to be tested were administered orally to the animals.

Row | Compound | LD50 [mg/kg]
41 | CC(=O)N1N=C(c2ccccc2)Nc2cnccc21 [Example 17, 3-phenyl-1-acetyl-1,4-dihydropyrido[3,4-e]-as-triazine] | 1400
42 | CCC(=O)N1N=C(C)Nc2cnccc21 [Example 11, 3-Methyl-1-propionyl-1,4-dihydropyrido[3,4-e]-as-triazine] | 500
43 | CC(=O)N1C=NN(C(C)=O)c2ccncc21 [Example 1, 1,4-diacetyl-1,4-dihydropyrido[3,4-e]-as-triazine] | 360
44 | CCC(=O)N1N=C(c2ccccc2)Nc2cnccc21 [Example 12, 3-phenyl-1-propionyl-1,4-dihydropyrido[3,4-e]-as-triazine] | > 2000
45 | CCCC(=O)N1N=C(c2ccccc2)Nc2cnccc21 [Example 19, 3-phenyl-1-butyryl-1,4-dihydropyrido[3,4-e]-as-triazine] | 1500
46 | CCC(=O)N1N=C(c2ccccc2)Nc2cnccc21.Cl [12 (HCl), 3-phenyl-1-propionyl-1,4-dihydro-pyrido[3,4-e]-as-triazine hydrochloride] | 2000
47 | CCC(=O)N1C=NN(C(=O)CC)c2ccncc21 [Example 18, 1,4-dipropioyl-1,4-dihydropyrido[3,4-e]-as-triazine] | 450

Tested on: rats
Assay: antiphlogistic effect, carrageenine-induced paw swelling (method of Winter)
Format: in vivo
Conditions: Rattus norvegicus, oral, paw volume before and 3 h after 0.1 ml 1% carrageenine, read-out: Dosage exerting 30% inhibition (antiphlogistic effect)
Description: The antiphlogistic effect of the new compounds according to the invention was investigated on rats by the method of Winter (J. Pharm. Exp. […] The volume of the treated paw was measured by […] before and 3 hours after challenge. The compounds to be tested were administered orally into the animals.

Row | Compound | ED30 [mg/kg]
48 | CCC(=O)N1N=C(C)Nc2cnccc21 [Example 11, 3-Methyl-1-propionyl-1,4-dihydropyrido[3,4-e]-as-triazine] | 30
49 | CCCCC1C(=O)N(c2ccccc2)N(c2ccccc2)C1=O [Phenylbutazone, reference compound] | 90
50 | CC(=O)N1C=NN(C(C)=O)c2ccncc21 [Example 1, 1,4-diacetyl-1,4-dihydropyrido[3,4-e]-as-triazine] | 25
51 | CCC(=O)N1N=C(c2ccccc2)Nc2cnccc21 [Example 12, 3-phenyl-1-propionyl-1,4-dihydropyrido[3,4-e]-as-triazine] | 26
52 | CCCC(=O)N1N=C(c2ccccc2)Nc2cnccc21 [Example 19, 3-phenyl-1-butyryl-1,4-dihydropyrido[3,4-e]-as-triazine] | 13
53 | CCC(=O)N1N=C(c2ccccc2)Nc2cnccc21.Cl [12 (HCl), 3-phenyl-1-propionyl-1,4-dihydro-pyrido[3,4-e]-as-triazine hydrochloride] | 30
54 | CCC(=O)N1C=NN(C(=O)CC)c2ccncc21 [Example 18, 1,4-dipropioyl-1,4-dihydropyrido[3,4-e]-as-triazine] | 12
